According to patent publication US4568490A, “Aminopropylaminobleomycin derivatives and process for preparation thereof” (Zaidan Hojin Biseibutsu Kagaku Kenkyu Kai, priority 1981, dated 1986):

What was measured:
Bacillus subtilis = assay: Antimicrobial activity, agar plate-cylinder method; type: cell-based; conditions: Cu-free form; bleomycin A2 (Cu-free form) standard assumed 1,000 mcg/mg
Experimental: (1) Antimicrobial activity against Mycobacterium smegmatis ATCC 697 and Bacillus subtilis.
(§1) The activity was assayed against the above test microorganisms by the method of agar plate-cylinder, assuming the potency of bleomycin A2 (Cu-free form), used as standard, to be 1,000 mcg/mg.

ICR strain mice = assay: Pulmonary toxicity (pulmonary fibrosis) in mice, intraperitoneal injection; type: in vivo; conditions: 5 mg/kg i.p. once a day for 10 days; for Grade of pulmonary fibrosis, % / Incidence of pulmonary fibrosis, % / Incidence: number of mice suffering from pulmonary fibrosis / Grade: total score of pulmonary fibrosis/total number of test animal: autopsy after 5 weeks; for Incidence: number of mice suffering from pulmonary fibrosis: affected/total mice; for Grade: total score of pulmonary fibrosis/total number of test animal: score 0-6 points; for Grade of pulmonary fibrosis, Ratio / Incidence of pulmonary fibrosis, Ratio: reference of the ratio not stated
Experimental: (3) Pulmonary toxicity (pulmonary fibrosis) in mice.
ICR strain mice (male; 15 weeks old; 9 mice per group) were used. Each mouse was administered with a daily dose of 5 mg/kg of the test sample by intraperitoneal injection, once a day, for 10 consecutive days. After completion of the predetermined administration, the mice were kept for 5 weeks under observation, then slaughtered, and autopsied to examine the incidence and grade of pulmonary fibrosis. The evaluation was made by comparing the number of administered mice suffering from pulmonary fibrosis and the grade of the disease.
(§2) In Tables 4A and 4B, the grade was numerically rated as follows:
(§3) 1 point: Accumulation of exudate in pulmonary alveoli and fibrosis-like change in alveolar septum.
(§4) 2 points: Fibrosis in several areas.
(§5) 4 points: Scattered fibrosis.
(§6) 6 points: Fibrosis in more than two-thirds of the total area.

[1] = tested on: Mycobacterium smegmatis ATCC 607; assay: Antimicrobial activity, agar plate-cylinder method; type: cell-based; conditions: Cu-free form; bleomycin A2 (Cu-free form) standard assumed 1,000 mcg/mg
Experimental: as §1

ICR mice = assay: Pulmonary toxicity (pulmonary fibrosis) in mice, intratracheal instillation; type: in vivo; conditions: 16 μg/50 μl/mouse intratracheally, sacrificed 4 weeks after instillation; for Grade: total score of pulmonary fibrosis/total number of samples: score 0-6 points
Experimental: Male 15 weeks old ICR mice were used. Sixteen μg/50 μl/mouse of each test sample was intratracheally instilled. The mice were sacrificed 4 weeks after instillation to examine the incidence and grade of pulmonary fibrosis. The evaluation was made by comparing the number of administered mice suffering from pulmonary fibrosis and the grade of the disease.
as §2, §3, §4, §5, §6

Hela S3 cells = assay: Growth inhibitory activity against Hela S3 cells; type: cell-based; conditions: Cu-free form; Hela S3, 3 days incubation with compound
Experimental: The percentage growth inhibition was calculated using the equation: […] wherein A is the ultimate number of cells on the third day from the addition of a test sample, B is the ultimate number of cells in the control (without the addition of test sample), and C is the number of cells on the day of addition of the test sample.

Structure (SMILES)	Antimicrobial potency of Cu--free compound, against Bacillus subtilis (Bacillus subtilis)	Grade of pulmonary fibrosis, % (ICR strain mice)	Incidence of pulmonary fibrosis, % (ICR strain mice)	Incidence: number of mice suffering from pulmonary fibrosis (ICR strain mice)	Grade: total score of pulmonary fibrosis/total number of test animal (ICR strain mice)	Grade of pulmonary fibrosis, Ratio (ICR strain mice)	Incidence of pulmonary fibrosis, Ratio (ICR strain mice)	Antimicrobial potency of Cu--free compound, against Mycobacterium smegmatis ATCC 607 [1]	Grade of pulmonary fibrosis, % (ICR mice)	Incidence of pulmonary fibrosis, % (ICR mice)	Incidence: number of mice with pulmonary fibrosis/number of mice (ICR mice)	Grade: total score of pulmonary fibrosis/total number of samples (ICR mice)	50% growth inhibition concentration (ID50) of Cu--free compound against cultured Hela cell (Hela S3 cells)
Cc1c(N)nc(C(CC(N)=O)NCC(N)C(N)=O)nc1C(=O)NC(C(=O)NC(C)C(O)C(C)C(=O)NC(C(=O)NCCc1nc(-c2nc(C(=O)NCCCN(C)CCCNCc3ccc(Cl)c(Cl)c3)cs2)cs1)C(C)O)C(OC1OC(CO)C(O)C(O)C1OC1OC(CO)C(O)C(OC(N)=O)C1O)c1cnc[nH]1 (stereo not drawn) [compound 7, 3-{N--Methyl-N--[3'-(m,p-dichlorobenzylamino)propyl]amino}propylaminoBLM]	4263 mcg potency per mg	4%	11%	1/9	1/27	0.05	0.18	10601 mcg potency per mg	13%	30%	3/10	4/30	0.82 µg/mL
Cc1c(N)nc(C(CC(N)=O)NCC(N)C(N)=O)nc1C(=O)NC(C(=O)NC(C)C(O)C(C)C(=O)NC(C(=O)NCCc1nc(-c2nc(C(=O)NCCCN(C)CCCNCc3ccc(Cl)cc3Cl)cs2)cs1)C(C)O)C(OC1OC(CO)C(O)C(O)C1OC1OC(CO)C(O)C(OC(N)=O)C1O)c1cnc[nH]1 (stereo not drawn) [compound 8, 3-{N--Methyl-N--[3'-(o,p-dichlorobenzylamino)propyl]amino}propylaminoBLM]	2940 mcg potency per mg	7%	11%	1/9	2/27	0.08	0.18	13013 mcg potency per mg	25%	25%	2/8	6/24	1.05 µg/mL
Cc1c(N)nc(C(CC(N)=O)NCC(N)C(N)=O)nc1C(=O)NC(C(=O)NC(C)C(O)C(C)C(=O)NC(C(=O)NCCc1nc(-c2nc(C(=O)NCCCN(C)CCCNC(C)c3ccc(Cl)cc3)cs2)cs1)C(C)O)C(OC1OC(CO)C(O)C(O)C1OC1OC(CO)C(O)C(OC(N)=O)C1O)c1cnc[nH]1 (stereo not drawn) [compound 14, 3-{N--Methyl-N--[3'-(1"-p-chlorophenylethylamino)propyl]amino}propylaminoBLM]	5459 mcg potency per mg	11%	22%	2/9	3/27	0.13	0.35	16959 mcg potency per mg	24%	57%	4/7	5/21	0.52 µg/mL
Cc1c(N)nc(C(CC(N)=O)NCC(N)C(N)=O)nc1C(=O)NC(C(=O)NC(C)C(O)C(C)C(=O)NC(C(=O)NCCc1nc(-c2nc(C(=O)NCCCN(C)CCCN(Cc3ccc(OCc4ccc(Cl)c(Cl)c4)c(OCc4ccc(Cl)c(Cl)c4)c3)Cc3ccc(OCc4ccc(Cl)c(Cl)c4)c(OCc4ccc(Cl)c(Cl)c4)c3)cs2)cs1)C(C)O)C(OC1OC(CO)C(O)C(O)C1OC1OC(CO)C(O)C(OC(N)=O)C1O)c1cnc[nH]1 (stereo not drawn) [compound 49, 3-{N--Methyl-N--[3'(bis(3",4"-di(m,p-dichlorobenzyloxy)benzyl)amino)propyl]amino}propylaminoBLM]	8 mcg potency per mg	0%	0%	0/9	0/27	0.00	0.00	23 mcg potency per mg					0.063 µg/mL
Cc1c(N)nc(C(CC(N)=O)NCC(N)C(N)=O)nc1C(=O)NC(C(=O)NC(C)C(O)C(C)C(=O)NC(C(=O)NCCc1nc(-c2nc(C(=O)NCCCN(C)CCCN(Cc3ccc(OCc4ccc(Cl)cc4)c(OCc4ccc(Cl)cc4)c3)Cc3ccc(OCc4ccc(Cl)cc4)c(OCc4ccc(Cl)cc4)c3)cs2)cs1)C(C)O)C(OC1OC(CO)C(O)C(O)C1OC1OC(CO)C(O)C(OC(N)=O)C1O)c1cnc[nH]1 (stereo not drawn) [compound 48, 3-{N--Methyl-N--[3'-(bis(3",4"di(p-chlorobenzyloxy)benzyl)amino)propyl]amino}propylaminoBLM]	8 mcg potency per mg	0%	0%	0/9	0/27	0.00	0.00	14 mcg potency per mg					0.058 µg/mL
COc1ccc(COc2ccc(CN(CCCN(C)CCCNC(=O)c3csc(-c4csc(CCNC(=O)C(NC(=O)C(C)C(O)C(C)NC(=O)C(NC(=O)c5nc(C(CC(N)=O)NCC(N)C(N)=O)nc(N)c5C)C(OC5OC(CO)C(O)C(O)C5OC5OC(CO)C(O)C(OC(N)=O)C5O)c5cnc[nH]5)C(C)O)n4)n3)Cc3ccc(OCc4ccc(OC)cc4)c(OCc4ccc(OC)cc4)c3)cc2OCc2ccc(OC)cc2)cc1 (stereo not drawn) [compound 50]	35 mcg potency per mg	0%	0%	0/9	0/27	0.00	0.00	145 mcg potency per mg					0.70 µg/mL
Cc1c(N)nc(C(CC(N)=O)NCC(N)C(N)=O)nc1C(=O)NC(C(=O)NC(C)C(O)C(C)C(=O)NC(C(=O)NCCc1nc(-c2nc(C(=O)NCCCN(C)CCCNCc3ccc(C#N)cc3)cs2)cs1)C(C)O)C(OC1OC(CO)C(O)C(O)C1OC1OC(CO)C(O)C(OC(N)=O)C1O)c1cnc[nH]1 (stereo not drawn) [compound 18, 3-{N--Methyl-N--[3'-(p-cyanobenzylamino)propyl]amino}propylaminoBLM]	4347 mcg potency per mg	0%	0%	0/9	0/27	0.00	0.00	3163 mcg potency per mg					1.10 µg/mL
